≈ marks a conversion by molar mass, not a printed value. Like-named read-outs stand apart in the source and are kept apart here.
Assays:
[1] = tested on: Obligately homofermentative lactobacilli (OHOL); conditions: FEEDAP Panel EFSA 2008; cited from earlier work
[2] = tested on: Lactobacillus spp; conditions: European Commission 2002; cited from earlier work
[3] = tested on: L. plantarum; conditions: FEEDAP Panel EFSA 2008; cited from earlier work
[4] = tested on: L. plantarum MCC1 DSM 23881; assay: Antibiotic susceptibility, E-test; type: cell-based; conditions: for resistance of L. plantarum MCC1 to the antibiotic: according to European Commission indicators for lactobacilli
Protocol: (§1) Methodology: The susceptibility of L. plantarum MCC1 and L. gasseri MCC2 to antibiotics was tested with the help of E-test (AB Biodisk, Solna). The minimum inhibitory concentration was determined according to the epidemiological breakpoints recommended by the European Commission.

[5] = tested on: L. gasseri MCC2 DSM 23882; assay: Antibiotic susceptibility, E-test; type: cell-based
Protocol: as §1

[6] = Lactiplantibacillus plantarum, DSM23881, read-out: MIC
[7] = Lactobacillus gasseri, DSM23882, read-out: MIC
[8] = Lactiplantibacillus plantarum, DSM23881
[9] = E-test, against L. plantarum MCC1
[10] = E-test, against L. gasseri MCC2

| Compound | MIC breakpoint for resistance, OHOL [1] | MIC breakpoint for resistance, Lactobacillus spp [2] | MIC breakpoint for resistance, L. plantarum [3] | MIC [4, 6] | MIC [5, 7] | other results |
| --- | --- | --- | --- | --- | --- | --- |
| CC1(C)S[C@@H]2[C@H](NC(=O)[C@H](N)c3ccccc3)C(=O)N2[C@H]1C(=O)O [Ampicillin] | 1 µg/mL | 2 µg/mL | 2 µg/mL | 0.094 µg/mL (≈ 0.269 µM) | 0.031 µg/mL (≈ 0.0887 µM) |  |
| CO[C@@]1(NC(=O)Cc2cccs2)C(=O)N2C(C(=O)O)=C(COC(N)=O)CS[C@@H]21 [Cefoxitin] |  | 4 µg/mL |  | 256 µg/mL (≈ 599 µM) | 1.5 µg/mL (≈ 3.51 µM) | resistance of L. plantarum MCC1 to the antibiotic [4]: resistant |
| CO/N=C(\C(=O)N[C@@H]1C(=O)N2C(C(=O)O)=C(COC(N)=O)CS[C@H]12)c1ccco1 [Cefuroxim] |  |  |  | 0.5 µg/mL (≈ 1.18 µM) | 0.19 µg/mL (≈ 0.448 µM) |  |
| O=C(N[C@H](CO)[C@H](O)c1ccc([N+](=O)[O-])cc1)C(Cl)Cl [Chloramphenicol] | 4 µg/mL | 16 µg/mL | 8 µg/mL | 1.5 µg/mL (≈ 4.64 µM) | 0.75 µg/mL (≈ 2.32 µM) |  |
| O=C(O)c1cn(C2CC2)c2cc(N3CCNCC3)c(F)cc2c1=O [Ciprofloxacin] |  | 4 µg/mL |  | 0.38 µg/mL (≈ 1.15 µM) | > 32 µg/mL |  |
| CCC[C@@H]1C[C@@H](C(=O)N[C@@H]([C@H]2O[C@H](SC)[C@H](O)[C@@H](O)[C@H]2O)[C@H](C)Cl)N(C)C1 [Clindamycin] |  |  |  | 0.064 µg/mL (≈ 0.151 µM) |  |  |
| CC[C@H]1OC(=O)[C@H](C)[C@@H](O[C@H]2C[C@@](C)(OC)[C@@H](O)[C@H](C)O2)[C@H](C)[C@@H](O[C@@H]2O[C@H](C)C[C@H](N(C)C)[C@H]2O)[C@](C)(O)C[C@@H](C)C(=O)[C@H](C)[C@@H](O)[C@]1(C)O [Erythromycin] | 1 µg/mL | 4 µg/mL | 1 µg/mL |  | 0.047 µg/mL (≈ 0.064 µM) | MIC [4, 8]: 0.125 µg/mL (≈ 0.17 µM) |
| C[C@@H](O)[C@H]1C(=O)N2C(C(=O)O)=C(SCCN=CN)C[C@H]12 [Imipenem] |  |  |  |  | 0.047 µg/mL (≈ 0.157 µM) |  |
| CO[C@H]1/C=C/O[C@@]2(C)Oc3c(C)c(O)c4c(O)c(c(/C=N/N5CCN(C)CC5)c(O)c4c3C2=O)NC(=O)/C(C)=C\C=C\[C@H](C)[C@H](O)[C@@H](C)[C@@H](O)[C@@H](C)[C@H](OC(C)=O)[C@@H]1C [Rifampin] |  | 32 µg/mL |  |  | 0.064 µg/mL (≈ 0.0778 µM) |  |
| [H]/N=C(/N)N[C@H]1[C@H](O)[C@@H](O)[C@H](O[C@@H]2O[C@@H](C)[C@](O)(C=O)[C@H]2O[C@@H]2O[C@@H](CO)[C@H](O)[C@@H](O)[C@@H]2NC)[C@@H](N/C(N)=N\[H])[C@@H]1O [Streptomycin] | 16 µg/mL | 16 µg/mL |  | 16 µg/mL (≈ 27.5 µM) |  |  |
| CN(C)[C@@H]1C(O)=C(C(N)=O)C(=O)[C@@]2(O)C(O)=C3C(=O)c4c(O)cccc4[C@@](C)(O)[C@H]3C[C@@H]12 [Tetracycline] |  |  |  | 2 µg/mL (≈ 4.5 µM) | 0.5 µg/mL (≈ 1.13 µM) |  |
| CN[C@H](CC(C)C)C(=O)N[C@H]1C(=O)N[C@@H](CC(N)=O)C(=O)N[C@H]2C(=O)N[C@H]3C(=O)N[C@H](C(=O)N[C@H](C(=O)O)c4cc(O)cc(O)c4-c4cc3ccc4O)[C@H](O)c3ccc(c(Cl)c3)Oc3cc2cc(c3O[C@@H]2O[C@H](CO)[C@@H](O)[C@H](O)[C@H]2O[C@H]2C[C@](C)(N)[C@H](O)[C@H](C)O2)Oc2ccc(cc2Cl)[C@H]1O [Vancomycin] | 2 µg/mL | 4 µg/mL |  |  |  | MIC [4, 8]: 256 µg/mL (≈ 177 µM); resistance of L. plantarum MCC1 to the antibiotic [4]: resistant; MIC ([5]; Lactobacillus gasseri, DSM23882): 0.75 µg/mL (≈ 0.518 µM) |
| Gentamicin | 16 µg/mL | 1 µg/mL | 16 µg/mL |  |  | MIC [4, 9]: 1.5 µg/mL; MIC [5, 10]: 2 µg/mL |
| Quinupristin/dalfopristin | 4 µg/mL | 4 µg/mL | 4 µg/mL |  |  | MIC [4, 9]: 1 µg/mL |
| Trim/sulfam |  | 32 µg/mL |  |  |  | MIC [5, 10]: >32 µg/mL |

— patent publication US20140037792A1, “Isolated microorganism strains Lactobacillus plantarum MCC1 DSM 23881 and Lactobacillus gasseri MCC2 DSM 23882 and their use” (Bio-Competence Centre of Healthy Dairy Products, priority 2011, published 2014)
